Laboratory results as given in patent US20250326744A1, “PIPERAZINE DERIVATIVE OR SALT THEREOF, AND PHARMACEUTICAL COMPOSITION” (priority 2022, published 2025).
Structures can show the parent of a compound that is named as a salt.

Experiments:
mexB (PA) strain = assay: Combinational effect with antibacterial agent against Pseudomonas aeruginosa (Test Examples 2 and 4): mexB (PA) strain with LVFX, TC or AZT at 1/4 MIC, EC99; type: cell-based; details: Table 52, Test Example 2, 16 to 20 hours culture, OD595; for EC99, mexB (PA), AZT: combined with AZT at 1/4 MIC; for EC99, mexB (PA), LVFX: combined with LVFX at 1/4 MIC; for EC99, mexB (PA), TC: combined with TC at 1/4 MIC
Procedure: (§1) The combinational effect of the test compound with the antibacterial agent against Pseudomonas aeruginosa was evaluated.
For the evaluation of the inhibitory ability against MexAB-OprM, a mutant strain of Pseudomonas aeruginosa in which MexAB-OprM was expressed as a main drug efflux pump (hereinafter, referred to as a “mexB (PA) strain”) was used. LVFX, TC, or AZT was used as the antibacterial agent used in combination.
The mexB (PA) strain is a strain produced by deleting the genes of MexCD-OprJ, MexEF-OprN, and MexXY in the drug efflux pump of Pseudomonas aeruginosa described in FEMS Microbiology Letters, 2001, Vol. 202, pp. 139 to 143. In the mexB (PA) strain, an expression level of MexB as a drug efflux pump is accelerated.
TC is a tetracycline-based antibacterial agent and is a drug that is discharged outside the bacteria by MexB. AZT is a monobactam-based antibacterial agent and is a drug that is discharged outside the bacteria by MexB.
(§2) AMK and GM are aminoglycoside-based antibacterial agents, and are drugs that are not discharged outside the bacteria by MexB but are discharged outside the bacteria by MexY For the culture of each Pseudomonas aeruginosa strain, a 96-well plate (amount of culture medium per well: 100 μL) was used, and cation-adjusted Mueller Hinton broth (CAMHB) was used. The inoculation amount of the bacteria was set to 10^4 to 5 CFU/well.
(§3) The mexB (PA) strain and the S-3769 strain were cultured for 16 to 20 hours in a culture medium to which each antibacterial agent and test compounds at various concentrations (0 to 800 μM) were added, and the proliferation of the bacterial strains was evaluated by optical turbidity at 595 nm (OD595). The concentration of the antibacterial agent in the culture medium was set to ¼ MIC.
(§4) The proliferation of bacteria in a case where the test compound and the antibacterial agent were not added was measured, and compared with the proliferation of bacteria in a case where the test compound in a case where the antibacterial agent was added at the concentration of ¼ MIC was contained, and the lowest concentration of the test compound at which the proliferation was inhibited by 99% or more was defined as the drug efflux pump inhibitory ability of the test compound as 99% inhibitory effect concentration (EC99).
(§5) The effect of suppressing the proliferation of each test compound in combination with an antibacterial agent at ¼ MIC for mexB (PA) or the S-3769 strain was evaluated as follows according to the value of EC99. • S: EC99≤12.5 μM • A: 12.5 μM<EC99≤25 μM • B: 25 μM<EC99≤100 μM • C: 100 μM<EC99
(§6) The combinational effect of the test compound with the antibacterial agent against Pseudomonas aeruginosa was evaluated in the same manner as in Test Example 2.

S-3769 strain = assay: Combinational effect with antibacterial agent against Pseudomonas aeruginosa (Test Examples 2 and 4): S-3769 strain with AMK or GM at 1/4 MIC, EC99; type: cell-based; details: Table 52, Test Example 2, 16 to 20 hours culture, OD595; for EC99, S-3769 strain, AMK: combined with AMK at 1/4 MIC; for EC99, S-3769 strain, GM: combined with GM at 1/4 MIC
Procedure: as §1
The […] was used for evaluating the inhibitory ability against MexXY-OprM. AMK or GM was used as the antibacterial agent used in combination.
The S-3769 strain is a clinically isolated strain collected from a domestic medical institution, and is a strain in which the expression level of MexY is accelerated.
as §2, §3, §4, §5, §6

Structure (SMILES) | EC99, mexB (PA), AZT (mexB (PA) strain) | EC99, mexB (PA), LVFX (mexB (PA) strain) | EC99, mexB (PA), TC (mexB (PA) strain) | EC99, S-3769 strain, AMK (S-3769 strain) | EC99, S-3769 strain, GM (S-3769 strain)
N[C@@H](C(=O)N1CCN(Cc2cccc3c2OC(F)(F)O3)CC1)C1CCN(CCc2cc(Cl)ccc2-c2ccccc2)CC1 [Example 24, Hydrobromide of (R)-2-amino-2-(1-(2-(4-chloro-[1,1′-biphenyl]-2-yl)ethyl)piperidin-4-yl)-1-(4-((2,2-difluorobenzo[d][1,3]dioxol-4-yl)methyl)piperazin-1-yl)ethan-1-one] | B (25 μM<EC99≤100 μM) | B (25 μM<EC99≤100 μM) | A (12.5 μM<EC99≤25 μM) | B (25 μM<EC99≤100 μM) | B (25 μM<EC99≤100 μM)
CCSc1cccc(F)c1CN1CCN(C(=O)[C@H](N)C2CCN(CCc3cc(Cl)ccc3-c3ccccc3)CC2)CC1 [Example 27, (R)-2-amino-2-(1-(2-(4-chloro-[1,1′-biphenyl]-2-yl)ethyl)piperidin-4-yl)-1-(4-(2-(ethylthio)-6-fluorobenzyl)piperazin-1-yl)ethan-1-one] | A (12.5 μM<EC99≤25 μM) | A (12.5 μM<EC99≤25 μM) | S (EC99≤12.5 μM) | S (EC99≤12.5 μM) | S (EC99≤12.5 μM)
CCSc1cc(F)ccc1CN1CCN(C(=O)[C@H](N)C2CCN(CCc3cc(Cl)ccc3-c3ccccc3)CC2)CC1 [Example 30, (R)-2-amino-2-(1-(2-(4-chloro-[1,1′-biphenyl]-2-yl)ethyl)piperidin-4-yl)-1-(4-(2-(ethylthio)-4-fluorobenzyl)piperazin-1-yl)ethan-1-one] | S (EC99≤12.5 μM) | S (EC99≤12.5 μM) | S (EC99≤12.5 μM) | S (EC99≤12.5 μM) | S (EC99≤12.5 μM)
CCOc1ccc(F)c(F)c1CN1CCN(C(=O)[C@H](N)C2CCN(CCc3cc(Cl)ccc3-c3ccccc3)CC2)CC1 [Example 35, Hydrobromide of (R)-2-amino-2-(1-(2-(4-chloro-[1,1′-biphenyl]-2-yl)ethyl)piperidin-4-yl)-1-(4-(6-ethoxy-2,3-difluorobenzyl)piperazin-1-yl)ethan-1-one] | B (25 μM<EC99≤100 μM) | C (100 μM<EC99) | B (25 μM<EC99≤100 μM) | S (EC99≤12.5 μM) | S (EC99≤12.5 μM)
N[C@@H](C(=O)N1CCN(Cc2cccc3c2OCO3)CC1)C1CCN(CCc2cc(Cl)ccc2-c2ccccc2)CC1 [Example 36, Hydrobromide of (R)-2-amino-1-(4-(benzo[d][1,3]dioxol-4-ylmethyl)piperazin-1-yl)-2-(1-(2-(4-chloro-[1,1′-biphenyl]-2-yl)ethyl)piperidin-4-yl) ethan-1-one] | B (25 μM<EC99≤100 μM) | C (100 μM<EC99) | B (25 μM<EC99≤100 μM) | B (25 μM<EC99≤100 μM) | B (25 μM<EC99≤100 μM)
N[C@@H](C(=O)N1CCN(Cc2cccc3c2OCCO3)CC1)C1CCN(CCc2cc(Cl)ccc2-c2ccccc2)CC1 [Example 37, Hydrobromide of (R)-2-amino-2-(1-(2-(4-chloro-[1,1′-biphenyl]-2-yl)ethyl)piperidin-4-yl)-1-(4-((2,3-dihydrobenzo[b] [1,4]dioxin-5-yl)methyl)piperazin-1-yl) ethan-1-one] | B (25 μM<EC99≤100 μM) | C (100 μM<EC99) | B (25 μM<EC99≤100 μM) | B (25 μM<EC99≤100 μM) | B (25 μM<EC99≤100 μM)
N[C@@H](C(=O)N1CCN(Cc2cccc3c2OCC3)CC1)C1CCN(CCc2cc(Cl)ccc2-c2ccccc2)CC1 [Example 38, Hydrobromide of (R)-2-amino-2-(1-(2-(4-chloro-[1,1′-biphenyl]-2-yl)ethyl)piperidin-4-yl)-1-(4-((2,3-dihydrobenzofuran-7-yl)methyl)piperazin-1-yl)ethan-1-one] | A (12.5 μM<EC99≤25 μM) | C (100 μM<EC99) | B (25 μM<EC99≤100 μM) | A (12.5 μM<EC99≤25 μM) | A (12.5 μM<EC99≤25 μM)
N[C@@H](C(=O)N1CCN(Cc2cccc3ccoc23)CC1)C1CCN(CCc2cc(Cl)ccc2-c2ccccc2)CC1 [Example 39, Hydrobromide of (R)-2-amino-1-(4-(benzofuran-7-ylmethyl)piperazin-1-yl)-2-(1-(2-(4-chloro-[1,1′-biphenyl]-2-yl)ethyl)piperidin-4-yl)ethan-1-one] | A (12.5 μM<EC99≤25 μM) | B (25 μM<EC99≤100 μM) | A (12.5 μM<EC99≤25 μM) | A (12.5 μM<EC99≤25 μM) | B (25 μM<EC99≤100 μM)
CCOc1cccc(F)c1CN1CCN(C(=O)[C@H](N)C2CCN(CCc3cccc4ccccc34)CC2)CC1 [Example 42] | B (25 μM<EC99≤100 μM) | B (25 μM<EC99≤100 μM) | B (25 μM<EC99≤100 μM) | S (EC99≤12.5 μM) | S (EC99≤12.5 μM)
CCOc1cccc(F)c1CN1CCN(C(=O)[C@H](N)C2CCN(CCc3cc(Cl)ccc3-c3ccccc3Cl)CC2)CC1 [Example 44, (R)-2-amino-2-(1-(2-(2′,4-dichloro-[1,1′-biphenyl]-2-yl)ethyl)piperidin-4-yl)-1-(4-(2-ethoxy-6-fluorobenzyl)piperazin-1-yl)ethan-1-one] | S (EC99≤12.5 μM) | A (12.5 μM<EC99≤25 μM) | S (EC99≤12.5 μM) | S (EC99≤12.5 μM) | S (EC99≤12.5 μM)
CCOc1cccc(F)c1CN1CCN(C(=O)[C@H](N)C2CCN(CCc3ccccc3-c3cc(F)cc(F)c3)CC2)CC1 [Example 48, Hydrobromide of (R)-2-amino-2-(1-(2-(3′,5′-difluoro-[1,1′-biphenyl]-2-yl)ethyl)piperidin-4-yl)-1-(4-(2-ethoxy-6-fluorobenzyl)piperazin-1-yl)ethan-1-one] | B (25 μM<EC99≤100 μM) | C (100 μM<EC99) | B (25 μM<EC99≤100 μM) | B (25 μM<EC99≤100 μM) | A (12.5 μM<EC99≤25 μM)
CCOc1cccc(F)c1CN1CCN(C(=O)[C@H](N)C2CCN(CCc3cc(F)ccc3-c3ccccc3)CC2)CC1 [Example 50, Hydrobromide of (R)-2-amino-1-(4-(2-ethoxy-6-fluorobenzyl)piperazin-1-yl)-2-(1-(2-(4-fluoro-[1,1′-biphenyl]-2-yl)ethyl)piperidin-4-yl)ethan-1-one] | B (25 μM<EC99≤100 μM) | C (100 μM<EC99) | B (25 μM<EC99≤100 μM) | B (25 μM<EC99≤100 μM) | A (12.5 μM<EC99≤25 μM)
CCOc1cccc(F)c1CN1CCN(C(=O)[C@H](N)C2CCN(CCc3cc(OC)ccc3-c3ccccc3)CC2)CC1 [Example 51, Hydrobromide of (R)-2-amino-1-(4-(2-ethoxy-6-fluorobenzyl)piperazin-1-yl)-2-(1-(2-(4-methoxy-[1,1′-biphenyl]-2-yl)ethyl)piperidin-4-yl)ethan-1-one] | B (25 μM<EC99≤100 μM) | B (25 μM<EC99≤100 μM) | B (25 μM<EC99≤100 μM) | A (12.5 μM<EC99≤25 μM) | S (EC99≤12.5 μM)
